In brackets after ≈: the same amount, converted by molar mass.
Legend:
SMMC-7721 = assay: MTT cytotoxicity assay, SMMC-7721 cells; format: cell-based
Method: (§1) Conjugate cytotoxicity was assessed using an MTT assay. Cells (SMMC-7721, L-02, etc.) were seeded at a density of 1×10^4 cells/well […] to the assay. At the start of the experiment the culture medium was removed and the conjugate (0-2 mg/lnl in complete medium) was added (100 ul). After 4 h, MTT (20 ul; 5 mg/ml in PBS) was added and the plates re-incubated for a further 5 h. the formazan crystals were dissolved in DMSO and the absorbance read at 550 nm using a microtitre plate reader. The results were expressed as viability(%) relative to a control containing no conjugate.

L-02 = assay: MTT cytotoxicity assay, L-02 cells; format: cell-based; conditions: concentration of MMC or conjugate up to 8 ugMMC/ml
Method: as §1

Method for Caco-2 cell monolayers: The transcellular transport of conjugate was evaluated using Caco-2 cell monolayers. Caco-2 cells were maintained in plastic culture flasks. These stock cells were subcultivated before reaching confluence. The medium consisted of Dulbecco's Modified Eagle's Medium supplemented with 10% fetal bovine serum, 1% nonessential amino acid, 2 mM L-glutamine and 100 IU/mL penicillin-10 ug/mL streptomycin. The monolayer cultures were grown in an atmosphere of 5% CO2-95% O2 at 37° C. The cells were given fresh growth medium every 2 days. When the Caco-2 cells had reached confluence, they were harvested with 0.25 mM trypsin and 0.2% EDTA (0.5-1 min at 37° C.), resuspended, and seeded into a new flask, Caco-2 cells were used between passages 45 and 60. For the transport study, Caco-2 cells were seeded at a cell density of 8×10^4 cells/cm^2 on 6-well (3-mm pores, 4.71-cm^2 growth area) Transwell™. The cell monolayers were fed a fresh growth medium every 2 days and were used at 16 to 21 days for the transport experiments. TEER was used to monitor the integrity of the monolayers. Monolayers with TEER above 350/cm^2 (after subtracting the back group value of the transwell) were used in the study.

## CO[C@@]12[C@H](COC(N)=O)C3=C(C(=O)C(C)=C(N)C3=O)N1C[C@@H]1N[C@@H]12 [MMC, mitomycinC, reference compound]
SMMC-7721; Homo sapiens, SMMC-7721, viability relative to control containing no conjugate
  IC50: 1.6 mg/L (≈ 4.79 µM)
L-02
  viability of L-02: unchanged

## Fe-transferrin-MMC
SMMC-7721; viability relative to control containing no conjugate
  IC50 to SMMC-7721: 0.5 ug MMC/ml
Caco-2 cell monolayers
  transcellular transport by caco-2 cells (transport fraction): 20 % of total drug
L-02
  viability of L-02: unchanged

From patent US20080306248A1, “Conjugate of Biomacromolecule with Bioreductive and Preparative Method Thereof” (priority 2005, published 2008)
